The source of these data is patent US11827690B2, “ApoC-II mimetic peptides” (THE UNITED STATES OF AMERICA, as represented by the …, priority 2017, dated 2023).

Test [1] concerns C57BL/6 mice (wild-type). In words: post-prandial serum TG in C57BL/6 mice after oral gavage with vegetable oil. It is filed as in vivo. The following applies: 1 μmoL/kg IP or SQ 30 min before gavage with vegetable oil (10 μL/gram). On the procedure:
(§1) C57Bl/6 mice (wild-type), apoC-II knockout (apoC-II KO) mice, and apoC-III transgenic mice were used for in vivo study. The C57Bl/6 mice (wild-type) were purchased from Taconic Biosciences Inc. The apoC-II KO mice were created as described in Sakurai et al., J Pharmacol Exp Ther 356:341-353, 2016. The apoC-III transgenic mice were generated by overexpressing human apoC-III in C57Bl/6 mice. See Qu et al., J. Lipid Res. 48:1476-1487, 2007.
(§2) Mice were fasted overnight (approximately 12 hours) before the study and 6 hours during the study, the next day. The apoC-II mimetic peptides were synthetically produced and free of biological contamination (not available as FDA approved compounds/treatment). Peptides were produced and used in sterile conditions and filtered by 0.2 nm filter before injections in a single dose 1-10 μmol/kg body weight (B. W.) administered either subcutaneous injection (S.Q. or S.C.), intraperitoneal injection (I.P.) or intravenous injection (I.V.) (in a sterile, pharmaceutical grade PBS solution at a volume ≤200 μL) as described in Sakurai et al., J Pharmacol Exp Ther 356:341-353, 2016.
In some experiments, each animal received 20% Intralipid (FDA approved, Fresenius Kabi, Uppsala, Sweden) in a single dose either by oral gavage (using special sterile single-use non-toxic animal feeding needles) in a dose 10-20 μL/gram body weight (B.W.) (Tuzcu et al. Drug Chem Toxicol 37: 261-267, 2014; Kusminski et al. Nature Medicine 18: 1539-1549, 2012), or by intraperitoneal injection in a single bolus of 0.1-1.0 mL (Mahadero et al. American J Surgery 164: 45-50, 1992), or by intragastric administration of a dietetic commercially-available liquid oil (food grade vegetable, corn, soy or olive oil) in a single dose 10-20 μL/gram body weight. These oils were a source of TG—when absorbed TG tends to be broken down within 3 h (peak in 30 min) (Kritchevsky Nutritional Biochemistry 6:172-178, 1995). Blood samples (20-30 μL) were obtained from the retro-orbital plexus at time points: −1 h, 0 h, 1 h, 3 h, 6 h and 24 h for measurements of lipids. Mice were returned to metabolic cages after the 6 h time point where the food was put back. Once the study was completed (after 24 hours from the fat administration), mice were euthanized and organs collected.

In test [2] the target is T1, LPL inhibited by apoC-III (Bos taurus, UniProt P11151).
T1 sequence (P11151 29-478): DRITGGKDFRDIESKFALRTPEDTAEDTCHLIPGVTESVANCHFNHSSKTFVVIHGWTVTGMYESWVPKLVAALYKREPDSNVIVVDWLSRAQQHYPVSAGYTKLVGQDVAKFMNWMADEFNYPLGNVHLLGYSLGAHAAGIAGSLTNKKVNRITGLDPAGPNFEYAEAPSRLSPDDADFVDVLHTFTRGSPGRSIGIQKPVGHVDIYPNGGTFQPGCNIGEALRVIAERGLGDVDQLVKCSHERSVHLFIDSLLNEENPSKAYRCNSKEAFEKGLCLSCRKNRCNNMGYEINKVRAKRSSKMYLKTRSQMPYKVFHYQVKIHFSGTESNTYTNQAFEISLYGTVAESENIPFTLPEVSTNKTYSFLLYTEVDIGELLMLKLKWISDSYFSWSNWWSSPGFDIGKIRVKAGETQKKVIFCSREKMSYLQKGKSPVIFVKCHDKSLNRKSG
In words: LPL activation assay with Intralipid as substrate and recombinant apoC-III as an inhibitor. It is filed as biochemical. As to conditions: Intralipid substrate, FIG. 31. On the procedure:
(§3) LPL activity assay: 10 μL of Intralipid, human plasma sample, or mouse plasma sample was added in each well using repeater pipette. 10 μL (or 15 μL in the wells with no LPL control) of PBS and 10 μL of 1% BSA was added in each well using repeater pipette. 10 μL of peptides were added to corresponding wells in vertical triplicates (lowest concentration is on a left, highest is on the right). The plate was spun down at 1000 RPM for 10 seconds to mix and to remove the solutions from the wall of each well. The plate was put on ice and 5 μL of LPL was added using repeater pipette. The plate was spun down again at 1000 RPM for 10 seconds. The plate was covered and put back on ice for an incubation of 30 min. The plate was then moved to 37° C. and incubated for 1 hour.
(§4) Free fatty acids (NEFA) assay: 45 μL of 5 nmoL standard and 0 nmoL control (0.2% BSA) were added to corresponding wells. 225 μL of reagent A was added in each well using the reagent tray and 12-channel pipette. The plate was incubated for 10 min before 75 μL of reagent B was added to each well using the reagent tray and 12-channel pipette. The plate was not covered due to the high volume. The absorbance at 550 nm and 660 nm was measured.
(§5) LPL assay was performed using Intralipid, high TG human plasma (1:50 dilution), or apoC-III transgenic mouse plasma (1:50 dilution). When Intralipid was used as a substrate, 25 or 50 μM recombinant ApoC-III was added as an inhibitor. When the high TG human plasma was used as a substrate, 25 or 50 μM recombinant ApoC-III was added as an inhibitor with or without pre-incubation at 37° C. for 1 hour. An apoC-II mimetic peptide was added at various concentrations.

In test [3] the target is T1, LPL inhibited by apoC-III. Put plainly: LPL activation assay using apoC-III transgenic mice plasma as substrate. As to conditions: all three transgenic mice plasma samples, FIG. 33. It is filed as biochemical. Details: host or cells: apoC-III comes with the plasma of apoC-III transgenic C57Bl/6 mice. On the procedure:
as §3, §4
LPL assay was performed using Intralipid, high TG human plasma (1:50 dilution), or apoC-III transgenic mouse plasma (1:50 dilution). […]

For test [4], the system named is apoC-III transgenic mice. Put plainly: plasma TG and apoC-III of apoC-III transgenic mice after peptide injection. It counts as in vivo. On the procedure: as §1, §2
The target in test [5] is T1, LPL inhibited by apoC-III. Put plainly: LPL assay using human apoC-II deficient plasma as substrate with recombinant apoC-III. It counts as biochemical. The following applies: 25 μM apoC-III, FIG. 50. The protocol: as §3, §4, §5
Test [6] has as its system apoC-II knockout mice. Put plainly: serum TG of apoC-II knockout mice after Intralipid injection. It is filed as in vivo. The following applies: peptide IP 1 hour after Intralipid, 5 and 10 μmole/kg, FIG. 37B. On the procedure:
as §1
as §2, with “2016. […]” for “2016.”

Where [7] appears, read: ELISA, 5 μmole/kg, Day 1 and Day 5, 3 h after injection.

With “DWLKAFYDKVAEKLKEAFPAMSTYTGIFTDQVLSVLKGEE (listed as Homo sapiens) [apoC-II-a, excluded from the claimed peptides]”, the “post-prandial TG rise” value in test [1] is listed as “almost completely blunted”. In addition, the “effect on inhibition of LPL by apoC-III” value is “overcame the inhibitory effect of apoC-III and facilitated lipolysis in a dose-dependent manner” in test [2]; “overcomes the inhibition by apoC-III” in test [2] (listed as ApoC-II-a). The “effect on inhibition by elevated expression of apoC-III” value in test [3] is “overcame the inhibitory effect of elevated expression of apoC-III”; in test [3] (listed as ApoC-II-a), “overcomes the inhibitory effect of elevated expression of apoC-III”.

With “DYLKEVFEKLRDLYEKFTPAVSTYTGIFTDQVLSVLKGEE [Delta6PV]”, in test [4] (setting [7]), the “apoC-III level on HDL” value is “decreased” and the “apoC-III level on VLDL” value is given as “decreased”. In test [4] (repeat IP injection at 24 h intervals for 5 days, 5 μmole/kg, 1 h, 3 h, 6 h after injection on Day 1 and Day 5), the “plasma TG compared to control” value is listed as “lower plasma TG”. The “plasma TG” value in test [4] (single intraperitoneal injection, 1, 5 and 10 μmole/kg, FIG. 38B) was “rapid and marked reduction of plasma TG”. Besides, in test [4] (single intraperitoneal injection, after the injection), the “time of maximum decrease of plasma TG” value was “about 6 hours”. For the same sequence, the “effect on inhibition of LPL by apoC-III” value in test [5] was “overcame the inhibitory effect of apoC-III and facilitated lipolysis”. Also, in test [6], the “serum TG increase after Intralipid injection” value is given as “the TG increase was significantly reduced”.
